In ChEMBL document CHEMBL3507680, “University of Dundee, Gates Library screen for HepG2 cell viability”:

Assay: Human HepG2 cell viability assay in 384 well format
Assay type: toxicity, cell-based
Parameters: dose 125 nL, time 70.5 hour; cytotoxicity at 70.5 h: concentration not given beside the values
Conditions: HepG2 cells, read-out: Inhibition

Compared with `O=S(=O)(Nc1nccs1)c1cc(Cl)cc2c1OCC2`, `CNC(=O)NC(=O)CCSCc1cc(Cl)cc2cccnc12` is lower in cytotoxicity at 70.5 h: 2.51% for the first, -16.5% for the second.

Going from `CC(C)COC1CCN(C(=O)c2cc3ccccc3c(=O)[nH]2)CC1` to `CC(=O)N1CCCC(c2nc(N(C)C)ncc2-c2ccccc2)C1` (stereo not given), the cytotoxicity at 70.5 h rises from -4.65% to 3.58%.

Going from `CC(=O)N1CCN(C(=O)c2cc(-n3cnnn3)ccc2Cl)CC1` to `CCOCCCC(=O)N1CCN(C(=O)Cc2cccc(OC)c2)CC1`, the cytotoxicity at 70.5 h falls from 24.6% to -5.09%.

Compared with `O=C(O)CCc1nc2nccc(C(F)(F)F)n2n1`, `Cc1cc(C(F)F)nn1CC(=O)NCc1nccn1C` is lower in cytotoxicity at 70.5 h: 0.723% for the first, -3.8% for the second.

Going from `COCCc1noc(CN2CCCC2c2c(C)nn(C)c2C)n1` (stereo not given) to `c1csc(-c2noc(CN3CCCCC3Cn3cccn3)n2)c1` (stereo not given), the cytotoxicity at 70.5 h rises from -8.48% to -1.63%.

Going from `CN(C)CCOCc1cncc2c1CCN(C(=O)c1cscn1)C2` to `CS(=O)(=O)N1CCc2c(cccc2NC(=O)Nc2ccccn2)C1`, the cytotoxicity at 70.5 h rises from -3.85% to 10.3%.

First: NS(=O)(=O)c1ccc(NCc2ccco2)c2ncccc12
Second: CN1CCN(S(=O)(=O)c2cccc(C#N)c2)c2ccc(F)cc21
The cytotoxicity at 70.5 h of the first is higher: 8.34% for the first, 0.333% for the second.

Compared with `COc1cccc(CN(C)C(C)c2nccs2)c1OCCn1ccnc1` (stereo not given), `COCCN(Cc1ccccc1Cl)C(=O)c1c(C)cc(C)[nH]c1=O` is higher in cytotoxicity at 70.5 h: -3.88% for the first, -2.7% for the second.

First: COc1ccc(OC)c(CNC2CCCc3nc(N(C)C)ncc32)c1 (stereo not given)
Second: COc1ccc2nc(C3CC3)cc(C(=O)NCc3ncnn3C)c2c1
The cytotoxicity at 70.5 h of the first is lower: -7.31% for the first, 0.319% for the second.

Going from `CCOC(C)c1noc(CN(C)C(=O)C2C(C)(C)C2(C)C)n1` (stereo not given) to `CCc1cnc(N2C[C@H]3C[C@H](C(=O)N(C)C)[C@@H](C2)O3)nc1`, the cytotoxicity at 70.5 h falls from -2.89% to -7.47%.

Going from `CCCN1CCN(S(=O)(=O)c2ccccc2OC)[C@H]2CS(=O)(=O)C[C@H]21` to `CS(=O)(=O)N1CCC(Oc2ccc(C(=O)NCCC(N)=O)cc2Cl)CC1`, the cytotoxicity at 70.5 h rises from -16.5% to 6.15%.

Compared with `CCC(CC)NC(=O)c1ncn2c1CN(CC)S(=O)(=O)c1ccccc1-2`, `CCOC(=O)NC(CNC(=O)c1ncccn1)CC(C)C` (stereo not given) is higher in cytotoxicity at 70.5 h: -12.8% for the first, -7.23% for the second.

Compared with `Cc1c[nH]nc1C1CN(c2cnccn2)CCO1` (stereo not given), `CS(=O)(=O)N1CCO[C@@H]2CN(C(=O)c3cccnc3)C[C@@H]2C1` is higher in cytotoxicity at 70.5 h: -4.52% for the first, -2.16% for the second.

Compared with `CNC(=O)C1CN(C(C)C)CCN1c1nc(C)cc(C)n1` (stereo not given), `CC(C)NC(=O)N1CCCC2(CCN(c3ccsc3)C2=O)C1` (stereo not given) is lower in cytotoxicity at 70.5 h: -10.7% for the first, -12.5% for the second.

Compared with `COc1cccc(C2(C(=O)NC3CCc4nccn4C3)CCCC2)c1` (stereo not given), `Cc1nccc(C2CCCCN2Cc2ccc(F)cc2)n1` (stereo not given) is lower in cytotoxicity at 70.5 h: 10.9% for the first, 10.1% for the second.

Compared with `Cc1nnc(NC(=O)NC(C)C(=O)NC2CCCC2)s1` (stereo not given), `CN1CCCC1c1ccc(C(=O)Nc2c3c(nn2C)CCC3)s1` (stereo not given) is lower in cytotoxicity at 70.5 h: -3.86% for the first, -13% for the second.

First: CCN1CCOCC2(CCCN(C(=O)c3ccncc3F)C2)C1 (stereo not given)
Second: O=C1N(c2cncnc2)CCC12CCCN(Cc1ccccn1)C2 (stereo not given)
The cytotoxicity at 70.5 h of the first is higher: -3.01% for the first, -9.94% for the second.

First: Cc1nc[nH]c1CN(C)Cc1cnn(-c2ccc(F)cc2)c1
Second: Fc1ccccc1CN1CCCN(c2ncnc3[nH]ccc23)CC1
The cytotoxicity at 70.5 h of the first is higher: 28.9% for the first, -24% for the second.

Compared with `CC1(C)CNC(=O)c2nc(CCCN3CCCC3)[nH]c2C1`, `CCCNc1ncc(CN2CCC3(CCNC(=O)CC3)CC2)cn1` is higher in cytotoxicity at 70.5 h: -8.44% for the first, -3.92% for the second.

Compared with `CCCN1CCN(c2ccc(-c3nc(C)no3)cn2)CC1`, `Cc1nc(C)n(CC2CN(S(C)(=O)=O)Cc3nccn3C2)n1` (stereo not given) is lower in cytotoxicity at 70.5 h: 13% for the first, 9.77% for the second.

Compared with `CC(CNS(=O)(=O)CCCC#N)c1ccsc1` (stereo not given), `CC(C)(C)CC(=O)NS(=O)(=O)c1ccc(C#N)cc1C(F)(F)F` is higher in cytotoxicity at 70.5 h: -3.18% for the first, 13.5% for the second.

First: Cc1ccc(C(C)(O)CNC(=O)NCCc2ccc3c(c2)CCO3)o1 (stereo not given)
Second: O=C(CN1CCCC(O)C1)NC(=O)NCc1cccs1 (stereo not given)
The cytotoxicity at 70.5 h of the first is higher: 26.1% for the first, -8.04% for the second.

`O=C(Cc1cccnc1)N1C[C@@H]2CC[C@H](C1)N(Cc1ccccc1)C2=O` gave a cytotoxicity at 70.5 h of -7.37%.
